Experimental data published in patent publication US20170190671A1, “BIS(ARYL)CATECHOL DERIVATIVES AS HERBICIDES” (E I DU PONT DE NEMOURS AND COMPANY, priority 2014, published 2017).

Assays:
Experiment in all cases: Test E preemergence
Assay type in all cases: in vivo
Conditions in all cases: scale 0 to 100
[1] = tested on: arrowleaf sida (Sida rhombifolia)
How it was run: (§1)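 Seeds were sown in silt loam soil and sprayed preemergence with test chemicals in a non-phytotoxic solvent mixture containing surfactant. For postemergence, plants at the 1- to 4-leaf stage (2 to 18 cm) in peat-based potting medium were treated. After 14 to 21 days in a greenhouse, injury was rated visually against controls, 0 (no effect) to 100 (complete control).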

[2] = tested on: palmer pigweed (Amaranthus palmeri)
How it was run: as §1

[3] = tested on: barnyardgrass (Echinochloa crus-galli)
How it was run: as §1

[4] = tested on: nightshade (eastern black nightshade, Solanum ptycanthum)
How it was run: as §1

[5] = tested on: morningglory (Ipomoea coccinea)
How it was run: as §1

[6] = tested on: sandbur (southern sandbur, Cenchrus echinatus)
How it was run: as §1

[7] = tested on: yellow nutsedge (Cyperus esculentus)
How it was run: as §1

[8] = tested on: field bindweed (Convolvulus arvensis)
How it was run: as §1

corn (Zea mays) = tested on: corn (Zea mays)
How it was run: as §1

[9] = tested on: hairy beggarticks (Bidens pilosa)
How it was run: as §1

[10] = tested on: Surinam grass (Brachiaria decumbens)
How it was run: as §1

[11] = tested on: giant foxtail (Setaria faberii)
How it was run: as §1

[12] = tested on: lambsquarters (Chenopodium album)
How it was run: as §1

[13] = tested on: green foxtail (Setaria viridis)
How it was run: as §1

[14] = tested on: Brazilian crabgrass (Digitaria horizontalis)
How it was run: as §1

soybean (Glycine max) = tested on: soybean (Glycine max)
How it was run: as §1

[15] = tested on: dayflower (Virginia (VA) dayflower, Commelina virginica)
How it was run: as §1

[16] = tested on: goosegrass (Eleusine indica)
How it was run: as §1

[17] = tested on: Italian ryegrass (Lolium multiflorum)
How it was run: as §1

[18] = tested on: waterhemp (common waterhemp, Amaranthus rudis)
How it was run: as §1

[19] = tested on: fall panicum (Panicum dichotomiflorum)
How it was run: as §1

## Fc1cccc(Oc2ncc(Cl)cn2)c1Oc1ncc(Cl)cn1 [Compound 21, 2,2′-[[3-fluoro-1,2-phenylene]bis(oxy)]bis[5-chloropyrimidine]]
[1]; 16 g ai/ha
  Plant response rating, Arrowleaf Sida: 90
[1]; 31 g ai/ha
  Plant response rating, Arrowleaf Sida: 100
[1]; 62 g ai/ha
  Plant response rating, Arrowleaf Sida: 100
[1]; 125 g ai/ha
  Plant response rating, Arrowleaf Sida: 100
[2]; 16 g ai/ha
  Plant response rating, Pigweed, Palmer: 0
[2]; 31 g ai/ha
  Plant response rating, Pigweed, Palmer: 60
[2]; 62 g ai/ha
  Plant response rating, Pigweed, Palmer: 100
[2]; 125 g ai/ha
  Plant response rating, Pigweed, Palmer: 100
[3]; 16 g ai/ha
  Plant response rating, Barnyardgrass: 15
[3]; 31 g ai/ha
  Plant response rating, Barnyardgrass: 20
[3]; 62 g ai/ha
  Plant response rating, Barnyardgrass: 65
[3]; 125 g ai/ha
  Plant response rating, Barnyardgrass: 100
[4]; 16 g ai/ha
  Plant response rating, Nightshade: 80
[4]; 31 g ai/ha
  Plant response rating, Nightshade: 90
[4]; 62 g ai/ha
  Plant response rating, Nightshade: 98
[4]; 125 g ai/ha
  Plant response rating, Nightshade: 100
[5]; 16 g ai/ha
  Plant response rating, Morningglory: 10
[5]; 31 g ai/ha
  Plant response rating, Morningglory: 50
[5]; 62 g ai/ha
  Plant response rating, Morningglory: 90
[5]; 125 g ai/ha
  Plant response rating, Morningglory: 80
[6]; 16 g ai/ha
  Plant response rating, Sandbur: 0
[6]; 31 g ai/ha
  Plant response rating, Sandbur: 0
[6]; 62 g ai/ha
  Plant response rating, Sandbur: 15
[6]; 125 g ai/ha
  Plant response rating, Sandbur: 50
[7]; 16 g ai/ha
  Plant response rating, Nutsedge, Yellow: 0
[7]; 31 g ai/ha
  Plant response rating, Nutsedge, Yellow: 0
[7]; 62 g ai/ha
  Plant response rating, Nutsedge, Yellow: 0
[7]; 125 g ai/ha
  Plant response rating, Nutsedge, Yellow: 15
[8]; 16 g ai/ha
  Plant response rating, Field Bindweed: 0
[8]; 31 g ai/ha
  Plant response rating, Field Bindweed: 0
[8]; 62 g ai/ha
  Plant response rating, Field Bindweed: 15
[8]; 125 g ai/ha
  Plant response rating, Field Bindweed: 40
Corn (Zea mays); 16 g ai/ha
  Plant response rating, Corn: 0
Corn (Zea mays); 31 g ai/ha
  Plant response rating, Corn: 0
Corn (Zea mays); 62 g ai/ha
  Plant response rating, Corn: 10
Corn (Zea mays); 125 g ai/ha
  Plant response rating, Corn: 50
[9]; 16 g ai/ha
  Plant response rating, Beggarticks: 0
[9]; 31 g ai/ha
  Plant response rating, Beggarticks: 0
[9]; 62 g ai/ha
  Plant response rating, Beggarticks: 0
[9]; 125 g ai/ha
  Plant response rating, Beggarticks: 0
[10]; 16 g ai/ha
  Plant response rating, Surinam Grass: 0
[10]; 31 g ai/ha
  Plant response rating, Surinam Grass: 10
[10]; 62 g ai/ha
  Plant response rating, Surinam Grass: 0
[10]; 125 g ai/ha
  Plant response rating, Surinam Grass: 50
[11]; 16 g ai/ha
  Plant response rating, Foxtail, Giant: 5
[11]; 31 g ai/ha
  Plant response rating, Foxtail, Giant: 90
[11]; 62 g ai/ha
  Plant response rating, Foxtail, Giant: 100
[11]; 125 g ai/ha
  Plant response rating, Foxtail, Giant: 100
[12]; 16 g ai/ha
  Plant response rating, Lambsquarters: 0
[12]; 31 g ai/ha
  Plant response rating, Lambsquarters: 40
[12]; 62 g ai/ha
  Plant response rating, Lambsquarters: 100
[12]; 125 g ai/ha
  Plant response rating, Lambsquarters: 100
[13]; 16 g ai/ha
  Plant response rating, Foxtail, Green: 15
[13]; 31 g ai/ha
  Plant response rating, Foxtail, Green: 50
[13]; 62 g ai/ha
  Plant response rating, Foxtail, Green: 70
[13]; 125 g ai/ha
  Plant response rating, Foxtail, Green: 100
[14]; 16 g ai/ha
  Plant response rating, Crabgrass, Brazil: 0
[14]; 31 g ai/ha
  Plant response rating, Crabgrass, Brazil: 65
[14]; 62 g ai/ha
  Plant response rating, Crabgrass, Brazil: 100
[14]; 125 g ai/ha
  Plant response rating, Crabgrass, Brazil: 100
Soybean (Glycine max); 16 g ai/ha
  Plant response rating, Soybean: 0
Soybean (Glycine max); 31 g ai/ha
  Plant response rating, Soybean: 25
Soybean (Glycine max); 62 g ai/ha
  Plant response rating, Soybean: 65
Soybean (Glycine max); 125 g ai/ha
  Plant response rating, Soybean: 90
[15]; 16 g ai/ha
  Plant response rating, Dayflower, VA: 0
[15]; 31 g ai/ha
  Plant response rating, Dayflower, VA: 0
[15]; 62 g ai/ha
  Plant response rating, Dayflower, VA: 25
[15]; 125 g ai/ha
  Plant response rating, Dayflower, VA: 95
[16]; 16 g ai/ha
  Plant response rating, Goosegrass: 10
[16]; 31 g ai/ha
  Plant response rating, Goosegrass: 50
[16]; 62 g ai/ha
  Plant response rating, Goosegrass: 75
[16]; 125 g ai/ha
  Plant response rating, Goosegrass: 98
[17]; 16 g ai/ha
  Plant response rating, Ryegrass, Italian: 0
[17]; 31 g ai/ha
  Plant response rating, Ryegrass, Italian: 0
[17]; 62 g ai/ha
  Plant response rating, Ryegrass, Italian: 35
[17]; 125 g ai/ha
  Plant response rating, Ryegrass, Italian: 70
[18]; 16 g ai/ha
  Plant response rating, Waterhemp: 65
[18]; 31 g ai/ha
  Plant response rating, Waterhemp: 80
[18]; 62 g ai/ha
  Plant response rating, Waterhemp: 100
[18]; 125 g ai/ha
  Plant response rating, Waterhemp: 100
[19]; 16 g ai/ha
  Plant response rating, Panicum, Fall: 35
[19]; 31 g ai/ha
  Plant response rating, Panicum, Fall: 75
[19]; 62 g ai/ha
  Plant response rating, Panicum, Fall: 100
[19]; 125 g ai/ha
  Plant response rating, Panicum, Fall: 100
